Test results taken from article PMC11969171 (Biomedicine & pharmacotherapy = Biomedecine & …, 2022).
Substitutions are numbered along the chain they refer to. Blank lines part the entries; values can stand above or below the molecule they belong to.

Columns and labels:
A1R^wt [1] = molecular target: T1, A1R^wt (Homo sapiens, UniProt P30542); conditions: CPA 200 nM
T1 sequence (P30542 1-326): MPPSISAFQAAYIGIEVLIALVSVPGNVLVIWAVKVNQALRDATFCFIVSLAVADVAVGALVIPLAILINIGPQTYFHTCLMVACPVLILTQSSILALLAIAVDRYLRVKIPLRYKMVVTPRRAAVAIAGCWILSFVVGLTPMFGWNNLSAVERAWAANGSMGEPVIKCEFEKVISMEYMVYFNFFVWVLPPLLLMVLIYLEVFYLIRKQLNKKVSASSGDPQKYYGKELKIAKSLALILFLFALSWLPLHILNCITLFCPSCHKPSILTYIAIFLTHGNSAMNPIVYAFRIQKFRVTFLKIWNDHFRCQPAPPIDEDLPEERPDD

A1R^G279S [2] = molecular target: T2, A1R^G279S (Homo sapiens, UniProt P30542, G279S); conditions: CPA 200 nM
T2 sequence (P30542 1-326 G279S): T1 sequence (P30542 1-326) with G279S

A1R^G279S [3] = molecular target: T2, A1R^G279S; format: binding; conditions: saturating concentration of DPCPX (1 µM)
A1R^wt [4] = molecular target: T1, A1R^wt; format: binding; conditions: saturating concentration of DPCPX (1 µM)
[5] = tested on: corticostriatal glutamate release; conditions: rats, local application, ref [64]; cited from earlier work

functional coupling to Gα12/13, Gαs, β-arrestin2 or GRK2 (A1R^wt [1]): No functional coupling
time to peak of NL-generated signal (A1R^wt [1]; Gαi-LgBiT or Gαq-LgBiT, decline to basal after 1 h): 10 min
functional coupling to Gα12/13, Gαs, β-arrestin2 or GRK2 (A1R^G279S [2]): No functional coupling
SMILES: OC[C@H]1O[C@@H](n2cnc3c(NC4CCCC4)ncnc32)[C@H](O)[C@@H]1O [CPA, N6-cyclopentyladenosine]

displacement of CA200634 binding (A1R^G279S [3]): displaced
displacement of CA200634 binding (A1R^wt [4]): displaced
SMILES: CCCn1c(=O)c2[nH]c(C3CCCC3)nc2n(CCC)c1=O [DPCPX, 8-cyclopentyl-1,3-dipropylxanthine]

SMILES: OCCN(CCO)c1nc(N2CCCCC2)c2nc(N(CCO)CCO)nc(N3CCCCC3)c2n1 [dipyridamole]
basal and optogenetic-induced corticostriatal glutamate release [5]: significant decrease
